Counter-ions that a name gives are not always drawn.
Key:
[1] = biological target: human LSD1(172-833) (Homo sapiens (Human), UniProt O60341); experiment: Measurement of LSD1 inhibitory activity (time-resolved fluorescence, biotin-histone H3 mono methylated K4 peptide); type: biochemical
In short: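 Remaining signal detected by TR-FRET after 60 min with europium anti-histone H3 antibody and streptavidin-XL665 in potassium fluoride/0.1% BSA.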

[2] = biological target: MAO-A enzyme (Homo sapiens (Human), UniProt P21397); experiment: Measurement of MAO-A inhibitory activity (MAO-Glo Assay); type: biochemical
[3] = biological target: MAO-B enzyme (Homo sapiens (Human), UniProt P27338); experiment: Measurement of MAO-B inhibitory activity (MAO-Glo Assay); conditions: read-out: MAO-B IC50 value;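 further: luminescence read-out, compound preincubated 10 min with enzyme then reacted 60 min at room temperature, inhibition relative to enzyme reaction without compound, blank lacking enzyme and compound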
Chain of MAO-B enzyme (P27338 whole entry): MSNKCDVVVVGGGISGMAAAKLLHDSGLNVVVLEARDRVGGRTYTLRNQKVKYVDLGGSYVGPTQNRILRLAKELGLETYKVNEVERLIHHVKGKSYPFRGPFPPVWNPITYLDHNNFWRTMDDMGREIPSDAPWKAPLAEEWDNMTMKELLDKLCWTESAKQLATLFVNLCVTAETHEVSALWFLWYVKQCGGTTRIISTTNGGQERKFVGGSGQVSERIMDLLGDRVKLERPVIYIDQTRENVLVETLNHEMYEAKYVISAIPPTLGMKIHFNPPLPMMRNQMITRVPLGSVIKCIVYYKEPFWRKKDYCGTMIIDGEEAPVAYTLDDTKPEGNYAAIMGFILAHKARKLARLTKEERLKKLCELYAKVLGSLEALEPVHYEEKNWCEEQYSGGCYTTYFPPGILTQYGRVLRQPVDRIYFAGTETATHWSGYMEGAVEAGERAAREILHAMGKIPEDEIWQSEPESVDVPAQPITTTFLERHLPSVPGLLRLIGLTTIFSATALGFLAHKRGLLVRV

Chain of MAO-A enzyme (P21397 whole entry): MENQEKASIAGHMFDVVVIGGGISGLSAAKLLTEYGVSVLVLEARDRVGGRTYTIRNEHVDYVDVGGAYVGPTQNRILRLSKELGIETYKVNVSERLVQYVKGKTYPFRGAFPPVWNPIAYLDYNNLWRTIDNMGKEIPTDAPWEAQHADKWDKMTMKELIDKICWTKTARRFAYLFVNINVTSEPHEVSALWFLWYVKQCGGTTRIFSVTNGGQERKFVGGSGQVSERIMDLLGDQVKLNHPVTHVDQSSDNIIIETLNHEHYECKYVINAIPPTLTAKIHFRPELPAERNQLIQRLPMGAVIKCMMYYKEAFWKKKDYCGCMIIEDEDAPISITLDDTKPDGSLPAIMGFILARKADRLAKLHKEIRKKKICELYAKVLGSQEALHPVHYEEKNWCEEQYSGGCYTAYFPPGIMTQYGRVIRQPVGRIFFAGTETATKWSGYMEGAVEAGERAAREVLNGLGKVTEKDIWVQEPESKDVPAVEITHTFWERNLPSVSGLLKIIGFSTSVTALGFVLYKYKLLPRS

Row | SMILES | IC50 [1] [µM] | IC50 [2] [µM] | IC50 [3] [µM]
1 | Cc1cnc(CNC(=O)c2ccc([C@@H]3C[C@H]3NCC3CC3)cc2)cn1 (relative stereo) [Example 15, 4-(trans-2-((cyclopropylmethyl)amino)cyclopropyl)-N-((5-methylpyrazin-2-yl)methyl)benzamide bis(trifluoroacetate)] | < 0.1 | > 10 | > 10
2 | N[C@@H]1C[C@H]1c1ccc(C(=O)N2CCCCC2)cc1 (relative stereo) [Example 7, (4-(trans-2-aminocyclopropyl)phenyl)(piperidin-1-yl)methanone hydrochloride] | < 0.1 | 0.8 | > 10
3 | N[C@@H]1C[C@H]1c1ccc(C(=O)Nc2ccccc2)cc1 (relative stereo) [Example 1, 4-(trans-2-aminocyclopropyl)-N-phenylbenzamide hydrochloride] | < 0.1 | 0.1 | 3.2
4 | Cc1ncc(NC(=O)c2cccc([C@@H]3C[C@H]3NCC3CCOCC3)c2)s1 (relative stereo) [Example 90, N-(2-methyl-1,3-thiazol-5-yl)-3-(trans-2-((tetrahydro-2H-pyran-4-ylmethyl)amino)cyclopropyl)benzamide dihydrochloride] | < 0.1 | > 10 | > 10
5 | O=C(NC1CCCC1)c1cccc([C@@H]2C[C@H]2NCC2CCOCC2)c1 (relative stereo) [Example 83, N-cyclopentyl-3-(trans-2-((tetrahydro-2H-pyran-4-ylmethyl)amino)cyclopropyl)benzamide hydrochloride] | < 0.1 | > 10 | > 10
6 | CN(C(=O)c1cccc([C@@H]2C[C@H]2NCC2CC2)c1)c1ccccc1 (relative stereo) [Example 80, 3-(trans-2-((cyclopropylmethyl)amino)cyclopropyl)-N-methyl-N-phenylbenzamide hydrochloride] | < 0.1 | 0.9 | > 10
7 | COc1ccccc1CN[C@@H]1C[C@H]1c1ccc(C(=O)NCc2ccccc2)cc1 (relative stereo) [Example 32, N-benzyl-4-(trans-2-((2-methoxybenzyl)amino)cyclopropyl)benzamide trifluoroacetate] | < 0.1 | > 10 | > 10
8 | O=C(NCc1ccccc1)c1cccc([C@@H]2C[C@H]2NCC2CC2)c1 (relative stereo) [Example 14, N-benzyl-3-(trans-2-((cyclopropylmethyl)amino)cyclopropyl)benzamide hydrochloride] | < 0.1 | 8.1 | > 10
9 | O=C(NCc1cccc(Oc2ccccc2)c1)c1ccc([C@@H]2C[C@H]2NCC2CC2)cc1 (relative stereo) [Example 21, 4-(trans-2-((cyclopropylmethyl)amino)cyclopropyl)-N-(3-phenoxybenzyl)benzamide trifluoroacetate] | < 0.1 | 1.8 | > 10
10 | CCn1cc(NC(=O)c2cccc([C@@H]3C[C@H]3NCC3CCOCC3)c2)cn1 (relative stereo) [Example 86, N-(1-ethyl-1H-pyrazol-4-yl)-3-(trans-2-((tetrahydro-2H-pyran-4-ylmethyl)amino)cyclopropyl)benzamide dihydrochloride] | < 0.1 | > 10 | > 10
11 | Cc1nnc(NC(=O)c2cccc([C@@H]3C[C@H]3NCC(C)(C)C)c2)s1 (relative stereo) [Example 158, 3-(trans-2-((2,2-dimethylpropyl)amino)cyclopropyl)-N-(5-methyl-1,3,4-thiadiazol-2-yl)benzamide dihydrochloride] | < 0.1 | > 10 | > 10

From patent publication US9751885B2, “Cyclopropanamine compound and use thereof” (Takeda Pharmaceutical Company Limited, priority 2012, dated 2017)
